Source: patent US8410106B2, “Hydrazine-substituted anthranilic acid derivatives” (Bayer Cropscience AG, priority 2010, dated 2013)
Read-outs that look alike come from different tables or passages of the source.

Key:
[1] = logP determination by HPLC on reversed-phase columns (C 18), EEC Directive 79/831 Annex V.A8; type: physicochemical
[2] = tested on: caterpillars of the army worm (Spodoptera frugiperda); experiment: Spodoptera frugiperda test (SPODFR spray treatment); type: in vivo; conditions: foliar, 168 h, read-out: activity (caterpillars killed)
[3] = tested on: greenhouse red spidermite (Tetranychus urticae); experiment: Tetranychus test, OP-resistant (TETRUR spray treatment); type: in vivo; conditions: after 6 days, bean leaf discs
Protocol: (§1) After 6 days the activity is determined, in %.

[4] = tested on: larvae of the mustard beetle (Phaedon cochleariae); experiment: Phaedon test (PHAECO spray treatment); conditions: in Brassica rapa, foliar, 168 h, read-out: activity (beetle larvae killed)
[5] = tested on: green peach aphid (Myzus persicae); experiment: Myzus test (MYZUPE spray treatment); type: in vivo; conditions: in Brassica rapa, foliar, 144 h, read-out: activity (aphids killed)
Protocol: as §1

Compound | chromatographic logP ([1]; HPLC, reversed-phase C 18, table value without method mark, read-out: logP) | pest or weed control at 100 g/ha ([2]; application rate 100 g/ha, after 7 days, maize leaf discs, spray) | activity (mites killed) ([3]; application rate 100 g/ha) | pest or weed control at 100 g/ha [4] | chromatographic logP [1] | pest or weed control at 100 g/ha [5] | pest or weed control at 100 g/ha ([2]; in Zea mays) | activity (mites killed) ([3]; application rate 500 g/ha)
COC(=O)N(C)NC(=O)c1cc(Cl)cc(C)c1NC(=O)c1cc(Cn2nnc(C(F)(F)F)n2)nn1-c1ncccc1C#N [Example 59] | 2.73 | 100% | 100% | 100% | – | – | – | –
COC(=O)N(C)NC(=O)c1cc(Cl)cc(Cl)c1NC(=O)c1cc(Cn2ncc(C(F)(F)F)n2)nn1-c1ncccc1Cl [Example 31] | – | – | – | 100% | 2.94 | 100% | 100% | –
COC(=O)N(C)NC(=O)c1cc(Cl)cc(C)c1NC(=O)c1cc(Cn2nnc(C(F)F)n2)nn1-c1ncccc1Cl [Example 26] | – | – | – | 100% | 2.49 | 100% | 100% | –
COC(=O)N(C)NC(=O)c1cc(Cl)cc(Cl)c1NC(=O)c1cc(Cn2nc(OC)n(C)c2=O)nn1-c1ncccc1Cl [Example 67] | – | – | – | – | 1.9 | – | – | 100%
COC(=O)N(C)NC(=O)c1cc(Cl)cc(C)c1NC(=O)c1cc(Cn2ncc(C(F)(F)F)n2)nn1-c1ncccc1Cl [Example 30] | – | – | – | 100% | 2.94 | 100% | 100% | –
COC(=O)N(C)NC(=O)c1cc(I)cc(C)c1NC(=O)c1cc(Cn2nnnc2C(F)(F)F)nn1-c1ncccc1Cl [Example 72] | – | – | – | 100% | 2.78 | 100% | 100% | –
COC(=O)N(C)NC(=O)c1cc(I)cc(C)c1NC(=O)c1cc(Cn2ccc(C(F)(F)F)n2)nn1-c1ncccc1Cl [Example 17] | – | – | – | 100% | 3.01 | 100% | 100% | –
COC(=O)N(C)N(C)C(=O)c1cc(C#N)cc(C)c1NC(=O)c1cc(Cn2nnc(C(F)(F)F)n2)nn1-c1ncccc1Cl [Example 8] | – | – | – | 100% | 2.97 | 100% | 100% | –
